This note sets out measurements from EP4755888A1 (ILAb Co., Ltd., priority 2023, dated 2025).

Structures are written as SMILES.

Sequence of PD-1/PD-L1 (Q9NZQ7 19-238 limits assumed): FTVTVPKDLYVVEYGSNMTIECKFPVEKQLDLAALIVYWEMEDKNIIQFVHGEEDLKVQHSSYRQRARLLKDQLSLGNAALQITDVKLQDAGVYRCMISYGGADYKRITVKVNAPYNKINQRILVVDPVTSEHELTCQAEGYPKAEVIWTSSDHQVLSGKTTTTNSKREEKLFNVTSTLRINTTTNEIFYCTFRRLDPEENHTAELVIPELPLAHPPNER

In the assay the target is PD-1/PD-L1 (Homo sapiens, UniProt Q9NZQ7). Description: TR-FRET PD-1/PD-L1 binding inhibition at the molecular level (free proteins). The conditions noted are these: Tag1-PD-L1 and Tag2-PD-1 proteins, twelve concentrations from 200 nM, 2 hours at room temperature, read-out: FRET assay (IC50). The method in brief:
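HTRF read-out at 665/620 nm after 2 h at room temperature. Detection used anti-Tag1 Eu cryptate plus anti-Tag2 XL665 antibodies. Tagged PD-L1 and PD-1 proteins were pre-mixed with compound across twelve […] 1:2 dilutions starting at 200 nM.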
`COc1cc(-c2cccc(-c3cccc(NC(=O)c4cc5n(n4)CCCC5NCCO)c3Cl)c2Cl)cc(F)c1CNCCNC(C)=O` (centres unmarked) [Compound 120, N-(4"-(((2-acetamidoethyl)amino)methyl)-2,2'-dichloro-3"-fluoro-5"-methoxy-[1,1':3',1"-terphenyl]-3-yl)-4-((2-hydroxyethyl)amino)-4,5,6,7-tetrahydropyrazolo[1,5-a]pyridine-2-carboxamide]: the IC50 was below 10 nM. Next, `Cc1c(NC(=O)c2cc3n(n2)CCC[C@@H]3N2CCC(C(=O)O)CC2)cccc1-c1cccc(Nc2nc(C(F)F)nc3cccnc23)c1C` [Compound 291, (S)-1-(2-((3'-((2-(difluoromethyl)pyrido[3,2-d]pyrimidin-4-yl)amino)-2,2'-dimethyl-[1,1'-biphenyl]-3-yl)carbamoyl)-4,5,6,7-tetrahydropyrazolo[1,5-a]pyridin-4-yl)piperidine-4-carboxylic acid]: 10 to 100 nM.

As for `Cc1c(Nc2nccc3cc(CN4CC[C@@H](O)C4)cnc23)cccc1-c1cccc(-c2cc3n(n2)CCCC3NC[C@@H]2CCC(=O)N2)c1C` (stereo partly drawn) [Compound 176, (5S)-5-(((2-(3'-((3-(((R)-3-hydroxypyrrolidin-1-yl)methyl)-1,7-naphthyridin-8-yl)amino)-2,2'-dimethyl-[1,1'-biphenyl]-3-yl)-4,5,6,7-tetrahydropyrazolo[1,5-a]pyridin-4-yl)amino)methyl)pyrrolidin-2-one], the IC50 is 10 to 100 nM.

As for `COc1cc(-c2cccc(-c3cccc(NC(=O)c4cc5n(n4)CCCC5N4CC[C@@H](O)C4)c3Cl)c2Cl)cc(F)c1CNCCO` (stereo partly drawn) [Compound 125, N-(2,2'-dichloro-3"-fluoro-4"-(((2-hydroxyethyl)amino)methyl)-5"-methoxy-[1,1':3',1"-terphenyl]-3-yl)-4-((R)-3-hydroxypyrrolidin-1-yl)-4,5,6,7-tetrahydropyrazolo[1,5-a]pyridine-2-carboxamide], the IC50 was below 10 nM. Next, `COc1cc(-c2cccc(-c3cccc(NC(=O)c4cc5n(n4)CCCC5NCCO)c3Cl)c2Cl)cc(F)c1CNC[C@@H]1CCC(=O)N1` (stereo partly drawn) [Compound 126, N-(2,2'-dichloro-3"-fluoro-5"-methoxy-4"-(((((S)-5-oxopyrrolidin-2-yl)methyl)amino)methyl)-[1,1':3',1"-terphenyl]-3-yl)-4-((2-hydroxyethyl)amino)-4,5,6,7-tetrahydropyrazolo[1,5-a]pyridine-2-carboxamide]: 10 to 100 nM; `Cc1nc(Nc2cccc(-c3cccc(NC(=O)c4cc5n(n4)CCC[C@H]5N4CC(C(=O)O)C4)c3Cl)c2Cl)c2ncccc2n1` [Compound 282, (R)-1-(2-((2,2'-dichloro-3'-((2-methylpyrido[3,2-d]pyrimidin-4-yl)amino)-[1,1'-biphenyl]-3-yl)carbamoyl)-4,5,6,7-tetrahydropyrazolo[1,5-a]pyridin-4-yl)azetidine-3-carboxylic acid]: below 10 nM. Next, `COc1cc(-c2cccc(-c3cccc(NC(=O)c4cc5n(n4)CCCC5NCC(=O)O)c3Cl)c2Cl)cc(F)c1CNCCNC(C)=O` (centres unmarked) [Compound 189, 2-((2-((4"-(((2-acetamidoethyl)amino)methyl)-2,2'-dichloro-3"-fluoro-5"-methoxy-[1,1':3',1"-terphenyl]-3-yl)carbamoyl)-4,5,6,7-tetrahydropyrazolo[1,5-a]pyridin-4-yl)amino)acetic acid]: below 10 nM; `CC(C)(N[C@H]1CCCn2nc(C(=O)Nc3cccc(-c4cccc(Nc5nccc6nccnc56)c4Cl)c3Cl)cc21)C(=O)O` [Compound 260, (S)-2-((2-((2,2'-dichloro-3'-(pyrido[3,4-b]pyrazin-5-ylamino)-[1,1'-biphenyl]-3-yl)carbamoyl)-4,5,6,7-tetrahydropyrazolo[1,5-a]pyridin-4-yl)amino)-2-methylpropanoic acid]: 10 to 100 nM; `O=C(Nc1cccc(-c2cccc(Nc3nccc4cc(CN5CC[C@@H](O)C5)cnc34)c2Cl)c1Cl)c1cc2n(n1)CCCC2NCCO` (stereo partly drawn) [Compound 20, N-(2,2'-dichloro-3'-((3-(((R)-3-hydroxypyrrolidin-1-yl)methyl)-1,7-naphthyridin-8-yl)amino)-[1,1'-biphenyl]-3-yl)-4-((2-hydroxyethyl)amino)-4,5,6,7-tetrahydropyrazolo[1,5-a]pyridine-2-carboxamide]: 10 to 100 nM.

For the compound `COc1cc(-c2cccc(-c3cccc(NC(=O)c4cc5n(n4)CCC[C@@H]5NCC(=O)O)c3Cl)c2Cl)cc(F)c1CN1CC[C@@H](O)C1` [Compound 247, 2-(((S)-2-((2,2'-dichloro-3"-fluoro-4"-(((R)-3-hydroxypyrrolidin-1-yl)methyl)-5"-methoxy-[1,1':3',1"-terphenyl]-3-yl)carbamoyl)-4,5,6,7-tetrahydropyrazolo[1,5-a]pyridin-4-yl)amino)acetic acid], the IC50 is below 10 nM. Next, `CC(=O)NCCNC1CCCn2nc(-c3cccc(-c4cccc(Nc5nccc6cc(CN7CC[C@@H](O)C7)cnc56)c4Cl)c3Cl)cc21` (stereo partly drawn) [Compound 181, N-(2-((2-(2,2'-dichloro-3'-((3-(((R)-3-hydroxypyrrolidin-1-yl)methyl)-1,7-naphthyridin-8-yl)amino)-[1,1'-biphenyl]-3-yl)-4,5,6,7-tetrahydropyrazolo[1,5-a]pyridin-4-yl)amino)ethyl)acetamide]: below 10 nM. Next, `O=C(Nc1cccc(-c2cccc(Nc3nccc4cc(CN5CC[C@@H](O)C5)cnc34)c2Cl)c1Cl)c1cc2n(n1)CCCC2NC(CO)CO` (stereo partly drawn) [Compound 230, N-(2,2'-dichloro-3'-((3-(((R)-3-hydroxypyrrolidin-1-yl)methyl)-1,7-naphthyridin-8-yl)amino)-[1,1'-biphenyl]-3-yl)-4-((1,3-dihydroxypropan-2-yl)amino)-4,5,6,7-tetrahydropyrazolo[1,5-a]pyridine-2-carboxamide]: 10 to 100 nM; `Cc1c(NC(=O)c2cc3n(n2)CCCC3N2CC[C@@H](O)C2)cccc1-c1cccc(-c2cc3n(n2)CCCC3N2CC[C@@H](O)C2)c1C` (stereo partly drawn) [Compound 161, 4-((R)-3-hydroxypyrrolidin-1-yl)-N-(3'-(4-((R)-3-hydroxypyrrolidin-1-yl)-4,5,6,7-tetrahydropyrazolo[1,5-a]pyridin-2-yl)-2,2'-dimethyl-[1,1'-biphenyl]-3-yl)-4,5,6,7-tetrahydropyrazolo[1,5-a]pyridine-2-carboxamide]: 10 to 100 nM; `Cn1c(C(=O)Nc2cccc(-c3cccc(NC(=O)c4cc5n(n4)CCCC5NC[C@@H]4CCC(=O)N4)c3Cl)c2Cl)nc2c1CCN(CCC13CCC(C(=O)O)(CC1)C3)C2` (stereo partly drawn) [Compound 54, 4-(2-(2-((2,2'-dichloro-3'-(4-((((S)-5-oxopyrrolidin-2-yl)methyl)amino)-4,5,6,7-tetrahydropyrazolo[1,5-a]pyridine-2-carboxamido)-[1,1'-biphenyl]-3-yl)carbamoyl)-1-methyl-6,7-dihydro-1H-imidazo[4,5-c]pyridin-5(4H)-yl)ethyl)bicyclo[2.2.1]heptane-1-carboxylic acid]: 10 to 100 nM. As for `CC(C)c1nc(Nc2cccc(-c3cccc(NC(=O)c4cc5n(n4)CCC[C@H]5N4CC(C(=O)O)C4)c3Cl)c2Cl)c2ncccc2n1` [Compound 302, (R)-1-(2-((2,2'-dichloro-3'-((2-isopropyl-pyrido[3,2-d]pyrimidin-4-yl)amino)-[1,1'-biphenyl]-3-yl)carbamoyl)-4,5,6,7-tetrahydropyrazolo[1,5-a]pyridin-4-yl)azetidine-3-carboxylic acid], the IC50 lay in the range of 10 to 100 nM. Next, `O=C(Nc1cccc(-c2cccc(NC(=O)c3cc4n(n3)CCCC4NCCO)c2Cl)c1Cl)c1ccc(CN2CC[C@@H](O)C2)cn1` (stereo partly drawn) [Compound 100, N-(2,2'-dichloro-3'-(5-(((R)-3-hydroxypyrrolidin-1-yl)methyl)picolinamido)-[1,1'-biphenyl]-3-yl)-4-((2-hydroxyethyl)amino)-4,5,6,7-tetrahydropyrazolo[1,5-a]pyridine-2-carboxamide]: below 10 nM; `O=C(Nc1cccc(-c2cccc(Nc3nccc4cc(CN5CC[C@@H](O)C5)cnc34)c2Cl)c1Cl)c1cc2n(n1)CCCC2NC1CCC(O)CC1` (stereo partly drawn) [Compound 233, N-(2,2'-dichloro-3'-((3-(((R)-3-hydroxypyrrolidin-1-yl)methyl)-1,7-naphthyridin-8-yl)amino)-[1,1'-biphenyl]-3-yl)-4-((4-hydroxycyclohexyl)amino)-4,5,6,7-tetrahydropyrazolo[1,5-a]pyridine-2-carboxamideide]: 10 to 100 nM.

As for `O=C(O)CNC1CCCn2nc(C(=O)Nc3cccc(-c4cccc(NC(=O)c5ncc(CNCCO)cc5F)c4Cl)c3Cl)cc21` (centres unmarked) [Compound 200, 2-((2-((2,2'-dichloro-3'-(3-fluoro-5-(((2-hydroxyethyl)amino)methyl)picolinamido)-[1,1'-biphenyl]-3-yl)carbamoyl)-4,5,6,7-tetrahydropyrazolo[1,5-a]pyridin-4-yl)amino)acetic acid], the IC50 is below 10 nM. Consider `CC(=O)NCCN[C@@H]1CCCn2nc(C(=O)Nc3cccc(-c4cccc(NC(=O)c5ccc(CNCCO)cn5)c4Cl)c3Cl)cc21` [Compound 242, (R)-4-((2-acetamidoethyl)amino)-N-(2,2'-dichloro-3'-(5-(((2-hydroxyethyl)amino)methyl)picolinamido)-[1,1'-biphenyl]-3-yl)-4,5,6,7-tetrahydropyrazolo[1,5-a]pyridine-2-carboxamide], for which the IC50 is below 10 nM. Consider `Cc1c(NC(=O)c2cc3n(n2)CCCC3NCCO)cccc1-c1cccc(Nc2nccc3cc(CN4CC[C@@H](O)C4)cnc23)c1Cl` (stereo partly drawn) [Compound 37, N-(2'-chloro-3'-((3-(((R)-3-hydroxypyrrolidin-1-yl)methyl)-1,7-naphthyridin-8-yl)amino)-2-methyl-[1,1'-biphenyl]-3-yl)-4-((2-hydroxyethyl)amino)-4,5,6,7-tetrahydropyrazolo[1,5-a]pyridine-2-carboxamide], for which the IC50 is below 10 nM.
